According to PubChem BioAssay (NCI):
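Each compound was tested at five concentrations against cells in 96-well plates for 48 hours. TGI denotes the concentration required for complete inhibition of growth.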

How the values were obtained:
Experiment in all cases: DTP human tumour cell line panel, 48 h
SF-295 CNS = tested on: SF-295 CNS
SK-MEL-28 melanoma = tested on: SK-MEL-28 melanoma
UACC-62 melanoma = tested on: UACC-62 melanoma
MDA-MB-435 = tested on: MDA-MB-435
IGROV1 ovarian = tested on: IGROV1 ovarian
KM12 colon = tested on: KM12 colon
LOX IMVI melanoma = tested on: LOX IMVI melanoma
HL-60(TB) leukemia = tested on: HL-60(TB) leukemia
SK-OV-3 ovarian = tested on: SK-OV-3 ovarian

Row | SMILES | TGI (SF-295 CNS) | TGI (SK-MEL-28 melanoma) | TGI (UACC-62 melanoma) | TGI (MDA-MB-435) | TGI (IGROV1 ovarian) | TGI (KM12 colon) | TGI (LOX IMVI melanoma) | TGI (HL-60(TB) leukemia) | TGI (SK-OV-3 ovarian)
1 | O=S(=O)(Nc1nc(-c2cc(O)c(O)c(O)c2)cs1)c1ccc(Cl)cc1Cl | 34.4 µM | > 100 µM | > 100 µM | 56.9 µM | 45.9 µM | 31.1 µM | 33.6 µM | > 100 µM | > 100 µM
2 | CC[C@@]1(O)C(=O)OCc2c1cc1n(c2=O)Cc2c-1nc1ccccc1c2/C=N\NC(=O)C(N)=O | 14.8 µM | > 100 µM | 3.54 µM | > 100 µM | 49.4 µM | > 100 µM | 3.72 µM | > 100 µM | 27.5 µM
3 | OC(C1CCCC1=N/N=C1/CCCC1C(O)(C(F)(F)Cl)C(F)(F)Cl)(C(F)(F)Cl)C(F)(F)Cl (configuration not stated) | > 10 µM | > 10 µM | > 10 µM | > 10 µM | > 10 µM | > 10 µM | > 10 µM | > 10 µM | > 10 µM
4 | Cn1c2cc(Cl)ccc2c2ccc3c(c21)C(=O)C=CC3=O | > 100 µM | 63.5 µM | > 31.6 µM | > 60.1 µM | > 63.1 µM | > 100 µM | > 100 µM | 45.9 µM | > 100 µM
5 | COC(=O)C1(Cc2ccc3c(c2)CCC3)Cc2cc3c(cc2C1=O)CCC3 (configuration not stated) | > 46.4 µM | > 46.4 µM | > 46.4 µM | 43 µM | > 46.4 µM | > 46.4 µM | > 46.4 µM | 17.9 µM | > 46.4 µM
6 | CC(C)=CCC[C@@H](C)C1=C(O)C(Nc2ccccc2F)=C(C)C(=O)C1=O | 30.4 µM | > 100 µM | > 79.3 µM | > 100 µM | > 69.5 µM | > 100 µM | > 100 µM | 5.61 µM | > 100 µM
7 | CC(=O)C1C(=O)C(=O)N(c2ccc([N+](=O)[O-])cc2Cl)C1=O (configuration not stated) | > 100 µM | > 100 µM | > 100 µM | > 100 µM | > 100 µM | > 100 µM | > 100 µM | > 100 µM | > 100 µM
8 | CCOc1ccc(C(c2c(O)c3ccccc3oc2=O)c2c(O)c3ccccc3oc2=O)cc1 | > 100 µM | > 100 µM | > 100 µM | > 100 µM | > 100 µM | > 100 µM | > 100 µM | 50.2 µM | > 100 µM
9 | COc1ccc(-c2cc(-c3ccc(Nc4ccnc5cc(C(F)(F)F)ccc45)cc3)[nH]c(=O)c2C#N)cc1 | > 57.6 µM | > 100 µM | > 100 µM | > 100 µM | > 100 µM | > 100 µM | > 100 µM | > 100 µM | > 47.4 µM
10 | OC1NC2CC3NC(O)C(O)NC3CC2NC1O (configuration not stated) | > 100 µM | > 100 µM | > 100 µM | > 100 µM | > 100 µM | > 100 µM | > 100 µM | > 100 µM | > 100 µM
11 | N#CCCCCC12C3C(=O)N(c4ccccc4)C(=O)C3ON1O[C@@H]1C(=O)N(c3ccccc3)C(=O)[C@@H]12 (some centres not stated) | > 100 µM | > 100 µM | > 100 µM | > 100 µM | > 100 µM | > 100 µM | > 100 µM | > 100 µM | > 100 µM
12 | CC1(C)N=C(/C(C#N)=[N+](/[O-])C(=O)c2ccccc2)C(C)(C)N1O | > 100 µM | > 100 µM | > 100 µM | > 100 µM | > 100 µM | > 100 µM | > 100 µM | > 100 µM | > 100 µM
13 | CCC(=O)n1c(=O)n(-c2ccc([N+](=O)[O-])cc2)c(=O)n1C(=O)CC | > 100 µM | > 100 µM | > 100 µM | > 100 µM | > 100 µM | > 100 µM | > 100 µM | > 100 µM | > 100 µM
14 | COc1ccc(CCN2CCOCC2)cc1 | > 100 µM | > 100 µM | > 100 µM | > 100 µM | > 100 µM | > 100 µM | > 100 µM | > 100 µM | > 100 µM
15 | CN1CCN(c2ccc3nc(-c4ccc5nc(-c6ccc(N(C)CCCl)cc6)[nH]c5c4)[nH]c3c2)CC1 | 11.2 µM | 1.13 µM | 1.05 µM | 0.281 µM | 0.391 µM | 2.31 µM | 0.218 µM | > 100 µM | 1.2 µM
16 | CCOC(=O)C1CCCC1S(=O)(=O)c1ccc(C)cc1 (configuration not stated) | > 100 µM | > 100 µM | > 100 µM | > 100 µM | > 100 µM | > 100 µM | > 100 µM | > 100 µM | > 100 µM
17 | CCCCCCCCC[C@@H]1C[C@@H]2CCC3C(C(=O)OCCCCNC(=O)OCc4ccccc4)=C(C)NC(=N1)N32 (some centres not stated) | 11.2 µM | 13.5 µM | 13.7 µM | 9.82 µM | 6.11 µM | 13.7 µM | 4.31 µM | 4.01 µM | 8.74 µM
18 | CN1CCN(CCCCNc2cc3c4ccccc4c(NCCCCN4CCN(C)CC4)cc3c3ccccc23)CC1 | 3.77 µM | 29 µM | 6.05 µM | 0.359 µM | 5.52 µM | 3.06 µM | 2.42 µM | 14.9 µM | 29.4 µM
